According to patent US11931347B2, “Method of screening for agents for differentiating stem cells” (MINERVA BIOTECHNOLOGIES CORPORATION, priority 2015, dated 2024):

Key:
[1] = system: human naïve state stem cells; test: stem cell drug screening assay on naïve state stem cells; format: cell-based; conditions: 6 uM, 3 days
Procedure: The stem cell screening assay, was performed in both the presence and absence of the stem cell growth factors: NME7AB for growing naïve stem cells or FGF for growing primed stem cells. If the cognate growth factor was present, then the biological or small molecule would have to compete away the growth factor to get an effect. Therefore, we expected to see more of an effect when the growth factor, FGF for primed stem cells or NME7AB or NME1 dimers for naïve stem cells, was absent. The effect of the compounds on stem cells was visually determined and compounds were ranked 0-4, with 4 being the greatest effect and 0 being no observable effect. The major effect that was observed was a change from pluripotent stem cell morphology, which is a cobblestone pattern of small round cells with a large nucleus to cytoplasm ratio, to that of differentiating stem cells, which are elongated, large and flattened cells with a smaller nucleus to cytoplasm ratio. […] The compounds were added to a final concentration of 6 uM to either naïve state stem cells or primed state stem cells. In this particular case, the naïve state stem cells were maintained in a naïve state by culturing in a media containing NME7AB or NME1 dimers. However, other methods such as 2i and 5i (Silva et al., 2008, Nichols and Smith, 2009, Theunissen et al., 2014)] can be used to maintain stem cells in a more naïve state. In this case primed state stem cells were cultured in bFGF over a layer of MEFs, although it is known that any bFGF containing media will maintain stem cells in the primed state.
Stem cells whether embryonic or induced pluripotent stem (iPS) cells were cultured in a minimal, serum-free media that contained human recombinant NME7AB at a concentration of 2-32 nM wherein 4-8 nM is preferred and 4 nM is more preferred. To facilitate surface attachment, cell culture plates were coated with an anti-MUC1* monoclonal antibody called MN-C3 or C3 or MN-C8 at a concentration of 2-100 ug/mL coating solution, wherein 3-50 ug/mL is preferred and 6-12.5 ug/mL is more preferred. In these experiments, 12.5 ug/mL of MN-C3 was used. Antibody coated plates were incubated at 4 degrees C. overnight prior to plating stem cells. A Rho kinase I inhibitor was added to enhance surface attachment. In some cases, NME7AB was substituted with human recombinant NME1 dimers which also induce stem cells to revert to a naïve-like state.
Human naïve state and primed stem cells were cultured in parallel for at least 5 passages to guarantee normal differentiation-free growth. The stem cells were plated in 12-well cell culture plates with 50,000 cells per well. Cells were cultured in their respective media, either bFGF media or NME7AB media for 24 hours. Media was then removed and replaced with media devoid of bFGF or NME7AB, when indicated. Agents being tested for their ability to induce differentiation of naïve stem cells were added to the media at the concentrations indicated. After 72 hours, photographs were taken see FIGS. 1-10.
Human naïve state and primed stem cells were cultured in parallel for at least 5 passages to guarantee normal differentiation-free growth. The stem cells were plated in 12-well cell culture plates with 50,000 cells per well. Cells were cultured in their respective media, either bFGF media or NME7AB media for 24 hours. Media was then removed and replaced with media devoid of bFGF or NME7AB. […] Media was changed after 48 hours and replaced with fresh media containing the BRD4 inhibitors. After 4 days the experiment was stopped. Photographs were taken and cell pellets collected for further analysis, see FIGS. 11-16.

[2] = system: MUC1* positive cancer cells; test: cancer cell growth in vitro (previously shown); format: cell-based
[3] = system: OV-90 MUC1* negative ovarian cancer cells; test: cancer cell proliferation assay (Calcein); format: cell-based; conditions: 96 hours (FIG. 114)
Procedure: (§1) Small molecule inhibition of cancer cell proliferation studies were also performed on several cancer sub-types. […] The small molecules of the invention had the most robust effect on T47D breast cancer cells, which are highly positive for MUC1* growth factor receptor, and its activating ligands NME7AB and NME7-X1. […] For the cancer cell proliferation experiment cancer cells were plated at constant densities (6000 cells/well) into a 96-well White-walled/Clear-bottom Tissue Culture Treated plate (Corning Incorporated, Big Flats, N.Y.). Small molecule analogs are added at T=24 hours in media with 2% FBS. Following the addition of the small molecules, the cells remain untouched for 120 hours with visual confirmations/inspections at 24, 48, 72 and 96 hours post plating. At the 120 hour mark a calcein fluorescence assay (Thermo Fisher Scientific, Waltham, Mass.) is performed on the plate. Calcein fluorescence (final concentration 0.5 uM) is used to assess cell viability. Cancer cell fluorescence is measured in a TECAN SAFIRE^2 spectrophotometer plate reader. The plate is then imaged using an Olympus IX71 fluorescence imaging microscope and montage of the resulting images are assembled using ImageJ.

[4] = system: SK-OV-3 MUC1* positive ovarian cancer cells; test: cancer cell proliferation assay (Calcein); format: cell-based; conditions: 96 hours (FIG. 112)
Procedure: as §1, with “[…] […]” for “Following the addition of the small molecules, the cells remain untouched for 120 hours with visual confirmations/inspections at 24, 48, 72 and 96 hours post plating. At the 120 hour mark a calcein fluorescence assay (Thermo Fisher Scientific, Waltham, Mass.) is performed on the plate.”

T47D breast cancer cells = test: cancer cell proliferation assay (Calcein live cell stain); format: cell-based, human; conditions: live cell Calcein stain, 96 hours (FIG. 113)
Procedure: These analogs of MN1194 and 1186 were also tested in a cell growth assay (FIGS. 107A1-107H6 and FIG. 108A1-108H6, respectively). In this experiment, both parent compound and analogs thereof were added to normal cell culture media to final concentrations of 40 uM, 20 uM, 10 uM, 5 uM or 2.5 uM. For comparison, previously known cancer cell migration inhibitors SU11274 and MN1204 were included in the same experiment. […] Relative cell proliferation is quantified on a standard plate reader that reads the fluorescence of the Calcein that is taken up by live cells.
Small molecule inhibition of cancer cell proliferation studies were also performed on several cancer sub-types. […] The small molecules of the invention had the most robust effect on T47D breast cancer cells, which are highly positive for MUC1* growth factor receptor, and its activating ligands NME7AB and NME7-X1.
For the cancer cell proliferation experiment cancer cells were plated at constant densities (6000 cells/well) into a 96-well White-walled/Clear-bottom Tissue Culture Treated plate (Corning Incorporated, Big Flats, N.Y.). Small molecule analogs are added at T=24 hours in media with 2% FBS. Following the addition of the small molecules, the cells remain untouched for 120 hours with visual confirmations/inspections at 24, 48, 72 and 96 hours post plating. At the 120 hour mark a calcein fluorescence assay (Thermo Fisher Scientific, Waltham, Mass.) is performed on the plate. Calcein fluorescence (final concentration 0.5 uM) is used to assess cell viability. Cancer cell fluorescence is measured in a TECAN SAFIRE^2 spectrophotometer plate reader. The plate is then imaged using an Olympus IX71 fluorescence imaging microscope and montage of the resulting images are assembled using ImageJ.

[5] = system: E-cadherin, fibronectin, vimentin and NF1 expression in naïve stem cells; test: RT-PCR of differentiation markers in treated naïve stem cells; format: cell-based, human
Procedure: FIG. 161 is a graph of RT-PCR measurement of naïve stem cells that have been treated with compounds of the invention. The genes whose expression is measured are E-cadherin, which goes […] as cells undergo epithelial to mesenchymal transition, fibronectin and vimentin, which both increase as stem cells initiate differentiation and NF1, which is one of the first genes to increase when stem cells begin to differentiate down the neural lineage. […] E-cadherin is the opposite; it […] as cells become cancerous. […] Expression of metastatic marker E-cadherin was reduced and expression of differentiation markers fibronectin, vimentin and NF1 were increased (FIG. 162-FIG. 163). Novel compounds of the invention are highly specific. […] Although we discovered that NME1 dimers, NME7AB and NME7-X1 are all activating ligands of the MUC1* growth factor receptor and they bind to its extracellular domain, we have developed ample evidence that both NME7AB and NME7-X1 have other binding partners and can exert oncogenic effects, independent of MUC1*.

[6] = system: NME7AB-induced transition of regular cancer cells to metastatic cancer cells; test: transition of regular cancer cells to metastatic cancer cells (previously shown); format: cell-based

Compound	effect on naïve stem cell pluripotency, growth or differentiation (visually determined) [1]	inhibition of cancer cell growth in vitro [2]	effect on growth of OV-90 cells [3]	effect on growth of SK-OV-3 cells [4]	inhibition of growth of T47D cells (T47D breast cancer cells)	up-regulation of markers of differentiation in naïve stem cells (RT-PCR) [5]	inhibition of transition of regular cancer cells to metastatic cancer cells [6]
COC(=O)c1ccc(C2c3[nH]c4ccccc4c3CCN2C(=O)c2cccc(Cl)c2)cc1 (centres unmarked) [MN0642]	induced differentiation	inhibit the growth of cancer cells in vitro	–	–	–	–	–
Cc1[nH]c(/C=C2\C(=O)Nc3ccc(S(=O)(=O)N(C)c4cccc(Cl)c4)cc32)c(C)c1C(=O)N1CCN(C)CC1 [SU11274]	–	–	neither the compounds of the invention nor JQ1 or SU11274 had any apparent effect	no effect	inhibited growth	did not cause up-regulation of markers of differentiation	–
FLR peptide: synthetic peptide corresponding to the extracellular domain of MUC1*, PSMGFR, SEQ ID NO:3 (GTINVHDVETQFNQYKTEAASRYNLTISDVSVSDVPFPFSAQSGA; the extracellular domain of Native Primary Sequence of the MUC1 Growth Factor Receptor (nat-PSMGFR - an example of “PSMGFR”))	induced differentiation	–	–	–	–	–	inhibit the transition of regular cancer cells to metastatic cancer cells
